In general, IC50 refers to the concentration that gives 50% inhibition.

Molecules are shown by their SMILES.

In this test the target is PIK3CG (human) (UniProt P48736). Put plainly: Assessment of PIK3CG Kinase Activity.
Sequence of PIK3CG (human) (P48736 whole entry, looked up): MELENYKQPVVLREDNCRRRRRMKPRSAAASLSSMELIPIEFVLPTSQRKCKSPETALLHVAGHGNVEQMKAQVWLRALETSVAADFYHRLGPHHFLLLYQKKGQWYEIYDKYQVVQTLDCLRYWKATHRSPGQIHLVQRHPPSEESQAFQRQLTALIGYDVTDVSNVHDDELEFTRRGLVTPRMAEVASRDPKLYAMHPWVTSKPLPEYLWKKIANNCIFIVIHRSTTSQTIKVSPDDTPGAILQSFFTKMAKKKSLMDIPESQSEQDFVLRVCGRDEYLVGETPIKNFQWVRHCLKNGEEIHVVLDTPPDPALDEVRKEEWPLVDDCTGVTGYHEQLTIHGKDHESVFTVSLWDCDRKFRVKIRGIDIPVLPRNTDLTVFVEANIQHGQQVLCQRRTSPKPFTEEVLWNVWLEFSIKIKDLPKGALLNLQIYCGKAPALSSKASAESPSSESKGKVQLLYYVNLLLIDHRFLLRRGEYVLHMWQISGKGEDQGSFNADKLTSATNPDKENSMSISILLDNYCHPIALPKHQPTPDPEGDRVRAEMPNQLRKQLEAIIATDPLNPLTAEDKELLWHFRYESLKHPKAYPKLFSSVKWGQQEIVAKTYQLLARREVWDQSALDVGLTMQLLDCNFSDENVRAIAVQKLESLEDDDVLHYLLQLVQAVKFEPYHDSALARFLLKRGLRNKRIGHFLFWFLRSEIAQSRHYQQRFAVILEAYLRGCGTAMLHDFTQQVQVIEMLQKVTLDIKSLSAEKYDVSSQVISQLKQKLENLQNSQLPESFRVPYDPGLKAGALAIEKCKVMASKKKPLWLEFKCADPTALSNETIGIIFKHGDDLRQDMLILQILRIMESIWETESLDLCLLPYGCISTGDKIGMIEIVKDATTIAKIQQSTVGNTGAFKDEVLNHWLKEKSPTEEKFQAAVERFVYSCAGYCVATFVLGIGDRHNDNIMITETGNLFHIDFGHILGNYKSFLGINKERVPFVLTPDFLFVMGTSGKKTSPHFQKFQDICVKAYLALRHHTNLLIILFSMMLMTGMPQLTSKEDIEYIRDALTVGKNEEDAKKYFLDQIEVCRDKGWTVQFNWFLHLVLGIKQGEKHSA
Take `CC(=O)Nc1nc2c(s1)-c1nc(-c3cc(C#CCNCC(C)C)ccc3Cl)ncc1CC2`: the 50% inhibitory concentration (IC50) was < 600 nM. Regarding `CNC(=O)Nc1nc2c(s1)-c1nc(-c3cc(C#CC4(O)CCN(C5CCCC5)CC4)ccc3Cl)ncc1CC2`, the IC50 is < 600 nM.

Turning to `CC(=O)Nc1nc2c(s1)-c1nc(-c3cc(C#CCN(C)S(=O)(=O)N4CCCC4)ccc3Cl)ncc1CC2`, the IC50 is < 600 nM. Turning to `CC(=O)Nc1nc2c(s1)-c1nc(-c3cc(C#CCCCN4CCCC4)ccc3Cl)ncc1CC2`, the IC50 was < 600 nM. Turning to `CC(=O)Nc1nc2c(s1)-c1nc(-c3cc(C#CC4CCN(S(=O)(=O)C5CC5)CC4)ccc3Cl)ncc1CC2`, the IC50 is < 600 nM. Consider `CC(=O)Nc1nc2c(s1)-c1nc(-c3cc(C#CCCCN4CCOCC4)ccc3Cl)ncc1CC2`, for which the IC50 is < 600 nM. Consider `CC(=O)Nc1nc2c(s1)-c1nc(-c3cc(C#CCNC(=O)CC4CCN(C)CC4)ccc3Cl)ncc1CC2`, for which the concentration for half-maximal inhibition (IC50) was < 600 nM. `CC(=O)Nc1nc2c(s1)-c1nc(-c3cc(C#CCNS(N)(=O)=O)ccc3Cl)ncc1CC2`: the IC50 is < 600 nM. The value for `CC(=O)Nc1nc2c(s1)-c1nc(-c3cc(C#CCNC(=O)CC(C)C)ccc3Cl)ncc1CC2` was < 600 nM; that for `CC(=O)Nc1nc2c(s1)-c1nc(-c3cc(C#CCNS(=O)(=O)C(F)(F)F)ccc3Cl)ncc1CC2` was < 600 nM; that for `CC(=O)Nc1nc2c(s1)-c1nc(-c3cccc(C#CCNC(=O)C4CCCC4)c3)ncc1CC2` was < 600 nM. As to `CC(=O)Nc1nc2c(s1)-c1nc(-c3cccc(C#CC4CCN(C)CC4)c3)ncc1CC2`, the IC50 is < 600 nM.

As for `CC(=O)Nc1nc2c(s1)-c1nc(-c3cc(C#CCCN4CCCC4)ccc3Cl)ncc1CC2`, the IC50 was < 600 nM. Next, `COCC#Cc1ccc(Cl)c(-c2ncc3c(n2)-c2sc(NC(C)=O)nc2CC3)c1`: < 600 nM; `CC(=O)Nc1nc2c(s1)-c1nc(-c3cccc(C#CCNC(=O)CC(C)(C)C)c3)ncc1CC2`: < 600 nM; `CC(=O)Nc1nc2c(s1)-c1nc(-c3cc(C#CCNS(=O)(=O)N4CCCC4)ccc3Cl)ncc1CC2`: < 600 nM. In the case of `CC(=O)Nc1nc2c(s1)-c1nc(-c3cc(C#CCNS(=O)(=O)c4ccccc4)ccc3Cl)ncc1CC2`, the IC50 was < 600 nM.

For the compound `CC(=O)Nc1nc2c(s1)-c1nc(-c3cc(C#CC4(N(C)C)CCCC4)ccc3Cl)ncc1CC2`, the IC50 is < 600 nM. For `CC(=O)Nc1nc2c(s1)-c1nc(-c3cc(C#CCN4CCCC4)ccc3Cl)ncc1CC2`, the IC50 was < 600 nM. In the case of `CC(=O)Nc1nc2c(s1)-c1nc(-c3cc(C#CCNS(=O)(=O)CC(F)(F)F)ccc3Cl)ncc1CC2`, the IC50 is < 600 nM.

Consider `CNC(=O)Nc1nc2c(s1)-c1nc(-c3cc(C#CC4CCN(C5CCCC5)CC4)ccc3Cl)ncc1CC2`, for which the IC50 was < 600 nM. The value for `CNC(=O)N(C)CCC#Cc1ccc(Cl)c(-c2ncc3c(n2)-c2sc(NC(C)=O)nc2CC3)c1` was < 600 nM; that for `CC(=O)Nc1nc2c(s1)-c1nc(-c3cc(C#CCNC(=O)NC4CCCC4)ccc3Cl)ncc1CC2` was < 600 nM.

Consider `CC(=O)Nc1nc2c(s1)-c1nc(-c3cc(C#CC4(N5CCCC5)CCCCC4)ccc3Cl)ncc1CC2`, for which the IC50 is < 600 nM.

Take `CC(=O)Nc1nc2c(s1)-c1nc(-c3cc(C#CCCCN(C)C)ccc3Cl)ncc1CC2`: the IC50 is < 600 nM. Next, `CC(=O)Nc1nc2c(s1)-c1nc(-c3cc(C#CCNS(C)(=O)=O)ccc3Cl)ncc1CC2`: < 600 nM.

Consider `CC(=O)Nc1nc2c(s1)-c1nc(-c3cc(C#CCn4ccnc4)ccc3Cl)ncc1CC2`, for which the IC50 was < 600 nM. In the case of `CC(=O)Nc1nc2c(s1)-c1nc(-c3cc(C#CCN(C)S(=O)(=O)C(C)C)ccc3Cl)ncc1CC2`, the IC50 is < 600 nM. With `CC(=O)Nc1nc2c(s1)-c1nc(-c3cc(Cl)cc(C#CCN(C)C)c3)ncc1CC2`, the half-inhibitory concentration (IC50) was < 600 nM. On to `CC(=O)Nc1nc2c(s1)-c1nc(-c3cc(C#CCN(C)S(=O)(=O)CC(F)(F)F)ccc3Cl)ncc1CC2`, for which the IC50 is < 600 nM. For `CC(=O)Nc1nc2c(s1)-c1nc(-c3cc(C#CC4CCN(C(=O)CC(C)C)CC4)ccc3Cl)ncc1CC2`, the IC50 is < 600 nM. Turning to `COC1(C#Cc2ccc(F)c(-c3ncc4c(n3)-c3sc(NC(C)=O)nc3CC4)c2)CCCCC1`, the 50% inhibitory concentration (IC50) is < 600 nM. As to `CC(=O)NCC#Cc1cccc(-c2ncc3c(n2)-c2sc(NC(C)=O)nc2CC3)c1`, the IC50 was < 600 nM. With `CC(=O)Nc1nc2c(s1)-c1nc(-c3cc(C#Cc4cccnc4)ccc3Cl)ncc1CC2`, the IC50 is < 600 nM. Consider `CC(=O)Nc1nc2c(s1)-c1nc(-c3cc(C#CCN(C)S(=O)(=O)N4CCOCC4)ccc3Cl)ncc1CC2`, for which the half-inhibitory concentration (IC50) is < 600 nM. Take `CC(=O)Nc1nc2c(s1)-c1nc(-c3cc(C#CC4CCN(C(=O)C(C)C)CC4)ccc3Cl)ncc1CC2`: the IC50 was < 600 nM. The value for `CC(=O)Nc1nc2c(s1)-c1nc(-c3cc(C#CCN4CCN(C)C(=O)C4)ccc3Cl)ncc1CC2` was < 600 nM; that for `CC(=O)Nc1nc2c(s1)-c1nc(-c3cc(C#CCN4CCNC(=O)C4)ccc3Cl)ncc1CC2` was < 600 nM. As to `CC(=O)Nc1nc2c(s1)-c1nc(-c3cc(C#CCNC(=O)CC4CCCC4)ccc3Cl)ncc1CC2`, the 50% inhibitory concentration (IC50) is < 600 nM. With `CC(=O)Nc1nc2c(s1)-c1nc(-c3cc(Cl)cc(C#CC4CCN(C5CCCC5)CC4)c3)ncc1CC2`, the IC50 is < 600 nM. Next, `CC(=O)Nc1nc2c(s1)-c1nc(-c3cc(C#CCCO)ccc3Cl)ncc1CC2`: < 600 nM; `CNCC#Cc1ccc(Cl)c(-c2ncc3c(n2)-c2sc(NC(C)=O)nc2CC3)c1`: < 600 nM.

With `CC(=O)Nc1nc2c(s1)-c1nc(-c3cc(C#CCCCNCC(C)C)ccc3Cl)ncc1CC2`, the IC50 is < 600 nM.

On to `CC(=O)Nc1nc2c(s1)-c1nc(-c3cc(C#CCN(C)CC(C)C)ccc3Cl)ncc1CC2`, for which the IC50 was < 600 nM. As to `CNC(=O)N1CCC(C#Cc2ccc(Cl)c(-c3ncc4c(n3)-c3sc(NC(C)=O)nc3CC4)c2)CC1`, the IC50 is < 600 nM.

As for `CC(=O)Nc1nc2c(s1)-c1nc(-c3cc(C#CCNCC4CC4)ccc3Cl)ncc1CC2`, the IC50 is < 600 nM.

`CCN(C)S(=O)(=O)NCC#Cc1ccc(Cl)c(-c2ncc3c(n2)-c2sc(NC(C)=O)nc2CC3)c1`: the IC50 was < 600 nM. For `CC(=O)Nc1nc2c(s1)-c1nc(-c3cc(C#CC4(N)CCCCC4)ccc3Cl)ncc1CC2`, the IC50 is < 600 nM. Take `CC(=O)Nc1nc2c(s1)-c1nc(-c3cc(C#CCNS(=O)(=O)C(C)C)ccc3Cl)ncc1CC2`: the IC50 is < 600 nM. Next, `CC(=O)Nc1nc2c(s1)-c1nc(-c3cc(C#CC4CCN(C5CCCC5)CC4)ccc3Cl)ncc1CC2`: < 600 nM; `CC(=O)Nc1nc2c(s1)-c1nc(-c3cc(C#CC4CCN(C(=O)N5CCCC5)CC4)ccc3Cl)ncc1CC2`: < 600 nM; `CC(=O)Nc1nc2c(s1)-c1nc(-c3cc(C#CCN(C)C(=O)C4CCCC4)ccc3Cl)ncc1CC2`: < 600 nM. Consider `CC(=O)Nc1nc2c(s1)-c1nc(-c3cc(C#CCCN(C)C)ccc3Cl)ncc1CC2`, for which the IC50 is < 600 nM.

On to `CC(=O)Nc1nc2c(s1)-c1nc(-c3cc(C#CCCN4CCCCC4)ccc3Cl)ncc1CC2`, for which the IC50 was < 600 nM.

Take `CCC(N)(C#Cc1ccc(Cl)c(-c2ncc3c(n2)-c2sc(NC(C)=O)nc2CC3)c1)CC`: the IC50 was < 600 nM. Regarding `CCS(=O)(=O)N(C)CC#Cc1ccc(Cl)c(-c2ncc3c(n2)-c2sc(NC(C)=O)nc2CC3)c1`, the IC50 was < 600 nM. With `CC(=O)Nc1nc2c(s1)-c1nc(-c3cc(C#CCN(C)S(=O)(=O)C4CC4)ccc3Cl)ncc1CC2`, the IC50 is < 600 nM. For the compound `CC(=O)Nc1nc2c(s1)-c1nc(-c3cc(C#CCCCN4CCC(N(C)C)CC4)ccc3Cl)ncc1CC2`, the IC50 is < 600 nM. As for `CC(=O)Nc1nc2c(s1)-c1nc(-c3cc(C#Cc4cncn4C)ccc3Cl)ncc1CC2`, the IC50 is < 600 nM. For the compound `CC(=O)Nc1nc2c(s1)-c1nc(-c3cc(C#CCNCC4CCCC4)ccc3Cl)ncc1CC2`, the IC50 is < 600 nM. The value for `CC(=O)Nc1nc2c(s1)-c1nc(-c3cc(C#CC4CCN(C(C)=O)CC4)ccc3Cl)ncc1CC2` was < 600 nM; that for `CC(=O)Nc1nc2c(s1)-c1nc(-c3cccc(C#CC4CCN(C5CCCC5)CC4)c3)ncc1CC2` was < 600 nM; that for `CC(=O)Nc1nc2c(s1)-c1nc(-c3cccc(C#CC4(O)CCN(C5CCCC5)CC4)c3)ncc1CC2` was < 600 nM. Consider `CC(=O)Nc1nc2c(s1)-c1nc(-c3cc(C#CCNC(=O)CCC(C)C)ccc3Cl)ncc1CC2`, for which the concentration for half-maximal inhibition (IC50) is < 600 nM. Take `CC(=O)Nc1nc2c(s1)-c1nc(-c3cc(C#CCNS(=O)(=O)C4CC4)ccc3Cl)ncc1CC2`: the IC50 is < 600 nM. As to `CC(=O)Nc1nc2c(s1)-c1nc(-c3cc(C#CCCN4CCN(C)CC4)ccc3Cl)ncc1CC2`, the IC50 was < 600 nM. Consider `CC(=O)Nc1nc2c(s1)-c1nc(-c3cc(C#CCNS(=O)(=O)c4ccoc4)ccc3Cl)ncc1CC2`, for which the half-inhibitory concentration (IC50) is < 600 nM. In the case of `CC(=O)Nc1nc2c(s1)-c1nc(-c3cc(C#CC4CCCCC4)ccc3Cl)ncc1CC2`, the concentration for half-maximal inhibition (IC50) was < 600 nM. Next, `CC(=O)Nc1nc2c(s1)-c1nc(-c3cc(C#CCN(C)S(=O)(=O)N(C)C)ccc3Cl)ncc1CC2`: < 600 nM; `CC(=O)Nc1nc2c(s1)-c1nc(-c3cc(C#CC4CCN(C(=O)NC(C)C)CC4)ccc3Cl)ncc1CC2`: < 600 nM; `CC(=O)Nc1nc2c(s1)-c1nc(-c3cc(C#CCN4CCS(=O)(=O)CC4)ccc3Cl)ncc1CC2`: < 600 nM. The value for `CC(=O)Nc1nc2c(s1)-c1nc(-c3cc(C#CCCCNC4CCN(C)CC4)ccc3Cl)ncc1CC2` was < 600 nM; that for `CC(=O)Nc1nc2c(s1)-c1nc(-c3cc(C#CC4(O)CCN(C5CCCC5)CC4)ccc3F)ncc1CC2` was < 600 nM.

On to `CC(=O)Nc1nc2c(s1)-c1nc(-c3cc(C#CCNC(=O)N(C)C)ccc3Cl)ncc1CC2`, for which the 50% inhibitory concentration (IC50) was < 600 nM.

On to `CC(=O)Nc1nc2c(s1)-c1nc(-c3cc(C#CCN4CCN(C)CC4)ccc3Cl)ncc1CC2`, for which the IC50 was < 600 nM.

Consider `CC(=O)Nc1nc2c(s1)-c1nc(-c3cc(C#CCNC(=O)CN(C)C)ccc3Cl)ncc1CC2`, for which the 50% inhibitory concentration (IC50) is < 600 nM. Turning to `CNC1(C#Cc2ccc(Cl)c(-c3ncc4c(n3)-c3sc(NC(C)=O)nc3CC4)c2)CCCCC1`, the IC50 was < 600 nM.

Turning to `CC(=O)Nc1nc2c(s1)-c1nc(-c3cc(C#CCCNC(C)C)ccc3Cl)ncc1CC2`, the IC50 is < 600 nM. As to `CC(=O)Nc1nc2c(s1)-c1nc(-c3cc(C#CC4CCN(C5CCCC5)CC4)ccc3F)ncc1CC2`, the IC50 was < 600 nM.

Values taken from the Kinase Knowledgebase extract (Sharma et al. 2016).
